Measurements published in PubChem BioAssay (NCI).
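Grown in 96-well plates, cells were treated for 48 hours with each compound at five concentrations. Insufficient inhibition: endpoint recorded as highest concentration tested. GI50 marks 50% less growth. TGI: concentration producing complete growth inhibition.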

Key:
Test in all cases: inhibition of tumour cell growth, NCI panel, 48 h
[1] = system: SW-620 colon
[2] = system: NCI-H226 lung
[3] = system: NCI-H460 lung
[4] = system: OVCAR-8 ovarian
[5] = system: PC-3 prostate
[6] = system: A498 renal
[7] = system: OVCAR-3 ovarian
[8] = system: HCC-2998 colon
[9] = system: LOX IMVI melanoma
[10] = system: SK-OV-3 ovarian
[11] = system: SR leukemia
[12] = system: UACC-62 melanoma
[13] = system: SNB-19 CNS
[14] = system: KM12 colon
[15] = system: MCF7 breast
[16] = system: ACHN renal
[17] = system: U251 CNS
[18] = system: UACC-257 melanoma
[19] = system: A549 NSCLC
[20] = system: T-47D breast
[21] = system: NCI/ADR-RES ovarian
[22] = system: SNB-75 CNS
[23] = system: HCT-116 colon
[24] = system: HT29 colon
[25] = system: HL-60(TB) leukemia
[26] = system: HCT-15 colon
[27] = system: 786-0 renal
[28] = system: NCI-H23 lung
[29] = system: SF-295 CNS
[30] = system: SK-MEL-2 melanoma
[31] = system: OVCAR-4 ovarian
[32] = system: NCI-H522 lung
[33] = system: SK-MEL-28 melanoma
[34] = system: SN12C renal
[35] = system: MDA-MB-231 breast
[36] = system: SF-268 CNS
[37] = system: OVCAR-5 ovarian
[38] = system: MALME-3M melanoma
[39] = system: SK-MEL-5 melanoma
[40] = system: SF-539 CNS
[41] = system: MDA-MB-435
[42] = system: K-562 leukemia
[43] = system: UO-31 renal
[44] = system: IGROV1 ovarian
[45] = system: CCRF-CEM leukemia
[46] = system: TK-10 renal
[47] = system: EKVX NSCLC
[48] = system: HS 578T breast
[49] = system: COLO 205 colon
[50] = system: RPMI-8226 leukemia
[51] = system: HOP-92 NSCLC
[52] = system: RXF 393 renal
[53] = system: MOLT-4 leukemia
[54] = system: M14 melanoma
[55] = system: DU-145 prostate

CCCCn1c2cc(OCc3cn(-c4ccc(Cl)cc4)nn3)ccc2c2ccnc(C)c21
GI50 [1]: 11 µM
TGI [1]: > 33.3 µM
GI50 [2]: 5.51 µM
TGI [2]: 14.1 µM
GI50 [3]: 7.2 µM
TGI [3]: 18.6 µM
GI50 [4]: 6.42 µM
TGI [4]: 23.9 µM
GI50 [5]: 7.85 µM
TGI [5]: > 33.3 µM
GI50 [6]: 5.08 µM
TGI [6]: 14.1 µM
GI50 [7]: 6.41 µM
TGI [7]: 18.2 µM
GI50 [8]: 9.58 µM
TGI [8]: 30.4 µM
GI50 [9]: 5.91 µM
TGI [9]: 12.3 µM
GI50 [10]: 5.45 µM
TGI [10]: 13.4 µM
GI50 [11]: 5.2 µM
TGI [11]: 22.4 µM
GI50 [12]: 4.96 µM
TGI [12]: 11.8 µM
GI50 [13]: 14.1 µM
TGI [13]: > 33.3 µM
GI50 [14]: 10.1 µM
TGI [14]: > 33.3 µM
GI50 [15]: 7.14 µM
TGI [15]: > 33.3 µM
GI50 [16]: 5.06 µM
TGI [16]: 10.3 µM
GI50 [17]: 5.66 µM
TGI [17]: 12.6 µM
GI50 [18]: 5.83 µM
TGI [18]: 11.1 µM
GI50 [19]: 8 µM
TGI [19]: > 33.3 µM
GI50 [20]: 4.3 µM
TGI [20]: 15 µM
GI50 [21]: 6.98 µM
TGI [21]: 29.7 µM
GI50 [22]: 5.09 µM
TGI [22]: 13.1 µM
GI50 [23]: 5.11 µM
TGI [23]: 13.2 µM
GI50 [24]: 6.25 µM
TGI [24]: > 33.3 µM
GI50 [25]: 5.09 µM
TGI [25]: 12.6 µM
GI50 [26]: 6.74 µM
TGI [26]: > 33.3 µM
GI50 [27]: 5.76 µM
TGI [27]: 11 µM
GI50 [28]: 7.23 µM
TGI [28]: 26.6 µM
GI50 [29]: 5.03 µM
TGI [29]: 17.8 µM
GI50 [30]: 7.82 µM
TGI [30]: 22.5 µM
GI50 [31]: 5.95 µM
TGI [31]: 25.5 µM
GI50 [32]: 4.72 µM
TGI [32]: 13.3 µM
GI50 [33]: 5.82 µM
TGI [33]: 14 µM
GI50 [34]: 8.16 µM
TGI [34]: > 33.3 µM
GI50 [35]: 7.26 µM
TGI [35]: 24.6 µM
GI50 [36]: 9.15 µM
TGI [36]: > 33.3 µM
GI50 [37]: 6.55 µM
TGI [37]: 21.5 µM
GI50 [38]: 5.98 µM
TGI [38]: 14.5 µM
GI50 [39]: 5.35 µM
TGI [39]: 9.87 µM
GI50 [40]: 5.11 µM
TGI [40]: 10.3 µM
GI50 [41]: 9.47 µM
TGI [41]: > 33.3 µM
GI50 [42]: 2.89 µM
TGI [42]: > 33.3 µM
GI50 [43]: 4.32 µM
TGI [43]: 10 µM
GI50 [44]: 9.02 µM
TGI [44]: > 33.3 µM
GI50 [45]: 9.27 µM
TGI [45]: > 33.3 µM
GI50 [46]: 7.55 µM
TGI [46]: 14.1 µM
GI50 [47]: 6.93 µM
TGI [47]: > 33.3 µM
GI50 [48]: 7.09 µM
TGI [48]: 32.1 µM
GI50 [49]: 5.76 µM
TGI [49]: 14.4 µM
GI50 [50]: 3.43 µM
TGI [50]: 11.9 µM
GI50 [51]: 4.22 µM
TGI [51]: 16.3 µM
GI50 [52]: 6.5 µM
TGI [52]: 19.8 µM
GI50 [53]: 6.07 µM
TGI [53]: 23.9 µM
GI50 [54]: 5.82 µM
TGI [54]: 16.4 µM
GI50 [55]: 15.2 µM
TGI [55]: > 33.3 µM
